Read-outs that look alike come from different tables or passages of the source.
Tests used:
acne = conditions: Farrell 1980; Hammerstein 1975; Lyons 1982; Weissman 1985; cited from earlier work
human sebaceous glands = conditions: Landthaler et al., 1980; cited from earlier work
[1] = test system: hamster ear sebaceous glands; assay: Hamster ear sebaceous gland assay, oral dosing; assay type: in vivo, Golden Syrian hamster (male); conditions: 4 weeks
Description: Charles River Golden Syrian male hamsters, weighing between 150 to 160 grams, were housed for one month after receipt before dosing with compounds. […] Fresh solutions were made up weekly.
Hamsters were given 0.2 ml of drug solution via oral intubation. Animals were dosed daily for five days, rested for two days, and dosed again for five days until 20 doses were given. Hamsters were weighed at the beginning and end of the dosing regimen.
Hamsters were sacrificed by CO2 inhalation, and the ears removed for histological evaluation. One ear was fixed with 10% buffered formalin, processed for paraffin embedding, sectioned, and stained with hematoxylin and eosin (H&E). The area of sebaceous glands in cross-sections of hamster ears was examined by image analysis using a Leitz TAS Plus system.
Data is given as the average area of 30-40 sebaceous glands as percent of the control (solvent-treated) sections.

[2] = in vivo; cited from earlier work
[3] = test system: human sebaceous cells (sebocytes); assay: Inhibition of human sebocyte proliferation in vitro; assay type: cell-based; conditions: read-out: ED50, inhibition of human sebocyte proliferation in vitro
Description: The cells are cultured in Iscove's medium containing 10% fetal calf serum and 4 μg/ml dexamethasone.
Cells are plated in medium without the test compound and then given test compound in fresh medium 24-48 hours after the initial plating. The cultures are given fresh medium containing the test compound, every 48 hours. On the day of harvesting, the cultures are rinsed with 0.03% EDTA in PBS to remove only the 3T3 fibroblasts, followed by incubation in 0.05% trypsin/0.03% EDTA. The cells are suspended, mixed vigorously to prepare a single cell suspension and counted in a hemocytometer.
All test compounds are handled in the following manner. Stock solutions are made up as 10^-2 M solutions in DMSO and stored at -20° C. in the dark. Solutions are never used after one month of storage. During experimental use, the solutions, which have been aliquoted, are brought to room temperature and used by diluting directly into complete medium to the appropriate concentration.

[4] = test system: Syrian hamster ear sebaceous gland; conditions: Plewig et al., 1981; cited from earlier work
rhino mouse utricles [5] = assay: Rhino mouse utricle assay, oral dosing; assay type: in vivo; conditions: 3 weeks, vs solvent-treated control
Description: (§1) Male and female rhino mice were weighed prior to the start of an experiment. For topical studies, test compounds are dissolved in 100% acetone and 100 μl applied to the dorsa of the mice five times a week, once daily, for three weeks. For oral studies, test compounds were dissolved in 100% propylene glycol and 100 μl given by oral intubation 5 times a week, once daily, for three weeks. Final body weights were recorded at the time of sacrifice, done by CO2 inhalation. A flap of skin from the dorsa was cut out and processed by histological methods to produce a whole mount of the tissue. Utricle size was measured by image analysis using either the Leitz TAS Plus system or the Ultimage system on a modified MACINTOSH computer. Data is given as the % change from solvent-treated control tissue (Tables 3 and 4).

rhino mouse utricles [6] = assay: Rhino mouse utricle assay, topical dosing; assay type: in vivo; conditions: 3 weeks, vs solvent-treated control
Description: as §1

[7] = Toxicity observed in the acne models of Examples 2-4; assay type: in vivo
Description: The compound of the invention was tested as described in Examples 2-4, below, in several acne models.

[8] = Experiment 2, oral 0.5 mg/kg, vs solvent-treated control
[9] = Experiment 2, oral 2.5 mg/kg, vs solvent-treated control
[10] = Experiment 2, oral 5 mg/kg, vs solvent-treated control
[11] = Experiment 2, oral 10 mg/kg, vs solvent-treated control
[12] = oral 0.25 mg/kg in propylene glycol
[13] = oral 1.25 mg/kg in propylene glycol
[14] = oral 5 mg/kg in propylene glycol
[15] = Experiment 1, topical 0.01 % solution in acetone
[16] = Experiment 1, topical 0.1 % solution in acetone
[17] = Experiment 2, topical 0.001 % solution in acetone
[18] = Experiment 2, topical 0.01 % solution in acetone
[19] = Experiment 2, topical 0.1 % solution in acetone

Compound	effect on sebum production (acne)	effect on severity of acne (acne)	% Decrease, hamster ear sebaceous gland size [1, 8] [%]	% Decrease, hamster ear sebaceous gland size [1, 9] [%]	% Decrease, hamster ear sebaceous gland size [1, 10] [%]	% Decrease, hamster ear sebaceous gland size [1, 11] [%]	% Decrease, rhino mouse utricle size (rhino mouse utricles [5]; [12]) [%]	% Decrease, rhino mouse utricle size (rhino mouse utricles [5]; [13]) [%]	% Decrease, rhino mouse utricle size (rhino mouse utricles [5]; [14]) [%]	% Decrease, rhino mouse utricle size (rhino mouse utricles [6]; [15]) [%]	% Decrease, rhino mouse utricle size (rhino mouse utricles [6]; [16]) [%]	% Decrease, rhino mouse utricle size (rhino mouse utricles [6]; [17]) [%]	% Decrease, rhino mouse utricle size (rhino mouse utricles [6]; [18]) [%]	% Decrease, rhino mouse utricle size (rhino mouse utricles [6]; [19]) [%]	also measured
CC(=O)O[C@]1(C(C)=O)CC[C@H]2[C@@H]3C=C(Cl)C4=CC(=O)[C@@H]5C[C@@H]5[C@]4(C)[C@H]3CC[C@@]21C [cyproterone acetate]	reduce sebum production	reduce the severity of acne													
CC1=C(/C=C/C(C)=C/C=C/C(C)=C\C(=O)O)C(C)(C)CCC1 [13-cis retinoic acid, reference compound]	reduce sebum production	reduce the severity of acne	-13	-24	-34	-30	-19	-39	-47	-44	-55	-27	-58	-61	reduction of the size of human sebaceous glands (human sebaceous glands): up to 90%; side effects [2]: deleterious side effects such as hypervitaminosis A; IC50 [3]: 50 nM; sensitivity of Syrian hamster ear sebaceous gland [4]: sensitive
CC(=O)S[C@@H]1CC2=CC(=O)CC[C@]2(C)[C@H]2CC[C@@]3(C)[C@@H](CC[C@@]34CCC(=O)O4)[C@H]12 [spironolactone]	reduce sebum production	reduce the severity of acne													
CCCCCCCCCOc1c(C)cc(C)cc1/C=C/C(C)=C/C=C/C(C)=C/C(=O)O [Compound I, (all-E)-3,7-dimethyl-9-[3,5-dimethyl-2-(nonyloxy)-phenyl]-2,4,6,8-nonatetraenoic acid]			-11	-18	-24	-33	-23	-23	-28	-10	-42	-1	-11	-30	% Decrease, hamster ear sebaceous gland size ([1]; Experiment 1, oral 0.5 mg/kg, vs solvent-treated control): -19%; % Decrease, hamster ear sebaceous gland size ([1]; Experiment 1, oral 1.5 mg/kg, vs solvent-treated control): -27%; % Decrease, hamster ear sebaceous gland size ([1]; Experiment 1, oral 5 mg/kg, vs solvent-treated control): -33%; % Decrease, hamster ear sebaceous gland size ([1]; Experiment 3a, vehicle = Propylene Glycol, oral 0.5 mg/kg): -19%; % Decrease, hamster ear sebaceous gland size ([1]; Experiment 3a, vehicle = Propylene Glycol, oral 1.6 mg/kg): -27%; % Decrease, hamster ear sebaceous gland size ([1]; Experiment 3a, vehicle = Propylene Glycol, oral 6 mg/kg): -33%; % Decrease, hamster ear sebaceous gland size ([1]; Experiment 3b, vehicle = Labrafil, oral 0.6 mg/kg): -18%; % Decrease, hamster ear sebaceous gland size ([1]; Experiment 3b, vehicle = Labrafil, oral 1.6 mg/kg): -26%; % Decrease, hamster ear sebaceous gland size ([1]; Experiment 3b, vehicle = Labrafil, oral 5 mg/kg): -26%; % Decrease, hamster ear sebaceous gland size ([1]; Experiment 3c, vehicle = Tween 80, oral 0.5 mg/kg): -13%; % Decrease, hamster ear sebaceous gland size ([1]; Experiment 3c, vehicle = Tween 80, oral 1.4 mg/kg): -13%; % Decrease, hamster ear sebaceous gland size ([1]; Experiment 3c, vehicle = Tween 80, oral 6 mg/kg): -22%; IC50 ([3]; amount necessary to inhibit proliferation by 50% vs diluent-treated control, tested at 10^-6 to 10^-9 M): 10 nM; toxicity at all doses tested [7]: non-toxic at all doses tested

Reference: patent US5369126A, “Nonatetraenoic acid derivative for use in treating acne” (Hoffmann-La Roche Inc., priority 1993, dated 1994)
